Data reported in patent US9771370B2, “Compounds for the inhibition of indoleamine-2,3-dioxygenase” (Merck Patent GmbH, priority 2014, dated 2017).

Biological target: Recombinant human IDO (Homo sapiens, UniProt P14902)
Experiment: Bridge-IT tryptophan fluorescence assay of human IDO-1 inhibition
Assay type: biochemical
Conditions: recombinant human IDO 7.5 nM, L-tryptophan
Method in brief: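 One variant ran L-Trp at 100 μM for 90 min at 37 °C. The other pre-incubated compound for 30 min at 25 °C, then ran 50 μM L-Trp for 60 min at 25 °C.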

Sequence of Recombinant human IDO (P14902 whole entry): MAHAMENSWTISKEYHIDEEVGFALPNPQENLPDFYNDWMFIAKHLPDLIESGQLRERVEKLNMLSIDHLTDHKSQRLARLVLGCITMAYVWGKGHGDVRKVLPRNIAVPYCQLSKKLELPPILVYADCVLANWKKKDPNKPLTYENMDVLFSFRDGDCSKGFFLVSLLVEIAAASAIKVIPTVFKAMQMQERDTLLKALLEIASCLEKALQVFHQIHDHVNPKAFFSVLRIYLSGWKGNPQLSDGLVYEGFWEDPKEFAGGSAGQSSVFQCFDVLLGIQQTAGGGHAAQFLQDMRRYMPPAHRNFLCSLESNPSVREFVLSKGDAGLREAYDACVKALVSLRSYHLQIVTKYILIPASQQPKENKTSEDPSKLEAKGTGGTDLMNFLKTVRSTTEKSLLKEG

| IC50 | Structure (SMILES) |
| --- | --- |
| < 100 nM | COc1ccc2c(n1)C(CCC1(F)CCC3(CC1)CC3)n1cncc1-2 (single isomer, unassigned) [Compound 54a, 7-(2-{6-fluorospiro[2.5]octan-6-yl}ethyl)-10-methoxy-4,6,9-triazatricyclo[6.4.0.0^[2,6]]dodeca-1(8),2,4,9,11-pentaene] |
| > 1000 nM | COc1ccc2c(n1)C(CCC1(F)CCC3(CC1)CC3)n1cncc1-2 (single isomer, unassigned) [Compound 54b, 7-(2-{6-fluorospiro[2.5]octan-6-yl}ethyl)-10-methoxy-4,6,9-triazatricyclo[6.4.0.0^[2,6]]dodeca-1(8),2,4,9,11-pentaene] |
| 100 to 1000 nM | OC(CC1c2nc(Cl)ccc2-c2cncn21)C1CCCCC1 (single isomer, unassigned) [Compound 55a, 2-[10-chloro-4,6,9-triazatricyclo[6.4.0.0^[2,6]]dodeca-1(8),2,4,9,11-pentaen-7-yl]-1-cyclohexylethan-1-ol] |
| > 1000 nM | OC(CC1c2nc(Cl)ccc2-c2cncn21)C1CCCCC1 (single isomer, unassigned) [Compound 55b, 2-[10-chloro-4,6,9-triazatricyclo[6.4.0.0^[2,6]]dodeca-1(8),2,4,9,11-pentaen-7-yl]-1-cyclohexylethan-1-ol] |
| > 1000 nM | OC(CC1c2nc(Cl)ccc2-c2cncn21)C1CCCCC1 (single isomer, unassigned) [Compound 55c, 2-[10-chloro-4,6,9-triazatricyclo[6.4.0.0^[2,6]]dodeca-1(8),2,4,9,11-pentaen-7-yl]-1-cyclohexylethan-1-ol] |
| 100 to 1000 nM | OC(CC1c2nc(Cl)ccc2-c2cncn21)C1CCCCC1 (single isomer, unassigned) [Compound 55d, 2-[10-chloro-4,6,9-triazatricyclo[6.4.0.0^[2,6]]dodeca-1(8),2,4,9,11-pentaen-7-yl]-1-cyclohexylethan-1-ol] |
| < 100 nM | OC(CC1c2nc(C3CC3)ccc2-c2cncn21)C1CCCCC1 (single isomer, unassigned) [Compound 56b, 1-cyclohexyl-2-[10-cyclopropyl-4,6,9-triazatricyclo[6.4.0.0^[2,6]]dodeca-1(8),2,4,9,11-pentaen-7-yl]ethan-1-ol] |
| > 1000 nM | OC(CC1c2nc(C3CC3)ccc2-c2cncn21)C1CCCCC1 (single isomer, unassigned) [Compound 56c, 1-cyclohexyl-2-[10-cyclopropyl-4,6,9-triazatricyclo[6.4.0.0^[2,6]]dodeca-1(8),2,4,9,11-pentaen-7-yl]ethan-1-ol] |
| 100 to 1000 nM | OC(CC1c2nc(C3CC3)ccc2-c2cncn21)C1CCC(F)(F)CC1 (single isomer, unassigned) [Compound 57b, 2-[10-cyclopropyl-4,6,9-triazatricyclo[6.4.0.0^[2,6]]dodeca-1(8),2,4,9,11-pentaen-7-yl]-1-(4,4-difluorocyclohexyl)ethan-1-ol] |
| 100 to 1000 nM | OC(CC1c2nc(C3CC3)ccc2-c2cncn21)C1CCC(F)(F)CC1 (single isomer, unassigned) [Compound 57c, 2-[10-cyclopropyl-4,6,9-triazatricyclo[6.4.0.0^[2,6]]dodeca-1(8),2,4,9,11-pentaen-7-yl]-1-(4,4-difluorocyclohexyl)ethan-1-ol] |
| > 1000 nM | OC1CCC(F)(CCC2c3cc(F)ncc3-c3cncn32)CC1 (single isomer, unassigned) [Compound 58a, 4-fluoro-4-[2-[10-fluoro-4,6,11-triazatricyclo[6.4.0.0^[2,6]]dodeca-1(8),2,4,9,11-pentaen-7-yl]ethyl]cyclohexan-1-ol] |
| > 1000 nM | OC1CCC(F)(CCC2c3cc(F)ncc3-c3cncn32)CC1 (single isomer, unassigned) [Compound 58c, 4-fluoro-4-[2-[10-fluoro-4,6,11-triazatricyclo[6.4.0.0^[2,6]]dodeca-1(8),2,4,9,11-pentaen-7-yl]ethyl]cyclohexan-1-ol] |
| > 1000 nM | OC1CCC(F)(CCC2c3cc(F)ncc3-c3cncn32)CC1 (single isomer, unassigned) [Compound 58d, 4-fluoro-4-[2-[10-fluoro-4,6,11-triazatricyclo[6.4.0.0^[2,6]]dodeca-1(8),2,4,9,11-pentaen-7-yl]ethyl]cyclohexan-1-ol] |
| > 1000 nM | OCC1CCC(F)(CCC2c3ccccc3-c3cncn32)CC1 (single isomer, unassigned) [Compound 59a, [4-fluoro-4-[2-[5H-imidazo[4,3-a]isoindol-5-yl]ethyl]cyclohexyl]methanol] |
| < 100 nM | OCC1CCC(F)(CCC2c3ccccc3-c3cncn32)CC1 (single isomer, unassigned) [Compound 59b, [4-fluoro-4-[2-[5H-imidazo[4,3-a]isoindol-5-yl]ethyl]cyclohexyl]methanol] |
| < 100 nM | OCC1CCC(F)(CCC2c3ccccc3-c3cncn32)CC1 (single isomer, unassigned) [Compound 59c, [4-fluoro-4-[2-[5H-imidazo[4,3-a]isoindol-5-yl]ethyl]cyclohexyl]methanol] |
| > 1000 nM | OCC1CCC(F)(CCC2c3ccccc3-c3cncn32)CC1 (single isomer, unassigned) [Compound 59d, [4-fluoro-4-[2-[5H-imidazo[4,3-a]isoindol-5-yl]ethyl]cyclohexyl]methanol] |
| < 100 nM | OC1(C2CCC(F)(CCC3c4ccccc4-c4cncn43)CC2)CC1 (single isomer, unassigned) [Compound 60a, 1-[4-fluoro-4-[2-[5H-imidazo[4,3-a]isoindol-5-yl]ethyl]cyclohexyl]cyclopropan-1-ol] |
| > 1000 nM | OC1(C2CCC(F)(CCC3c4ccccc4-c4cncn43)CC2)CC1 (single isomer, unassigned) [Compound 60b, 1-[4-fluoro-4-[2-[5H-imidazo[4,3-a]isoindol-5-yl]ethyl]cyclohexyl]cyclopropan-1-ol] |
| > 1000 nM | OC1(C2CCC(F)(CCC3c4ccccc4-c4cncn43)CC2)CC1 (single isomer, unassigned) [Compound 60c, 1-[4-fluoro-4-[2-[5H-imidazo[4,3-a]isoindol-5-yl]ethyl]cyclohexyl]cyclopropan-1-ol] |

Second part, the compound before the results:

| Structure (SMILES) | IC50 |
| --- | --- |
| COc1ccc2c(n1)C(CC(O)C1CCC(C)(C)CC1)n1cncc1-2 (single isomer, unassigned) [Compound 40b, 1-(4,4-dimethylcyclohexyl)-2-[10-methoxy-4,6,9-triazatricyclo[6.4.0.0^[2,6]]dodeca-1(8),2,4,9,11-pentaen-7-yl]ethan-1-ol] | 100 to 1000 nM |
| COc1cccc2c1-c1cncn1C2CCC1(F)CCCCC1 (single isomer, unassigned) [Compound 42a, 5-(2-(1-fluorocyclohexyl)ethyl)-9-methoxy-5H-imidazo[5,1-a]isoindole] | > 1000 nM |
| COc1cccc2c1-c1cncn1C2CCC1(F)CCCCC1 (single isomer, unassigned) [Compound 42b, 5-(2-(1-fluorocyclohexyl)ethyl)-9-methoxy-5H-imidazo[5,1-a]isoindole] | 100 to 1000 nM |
| Oc1cccc2c1-c1cncn1C2CCC1(F)CCCCC1 (single isomer, unassigned) [Compound 43a, 5-(2-(1-fluorocyclohexyl)ethyl)-5H-imidazo[5,1-a]isoindol-9-ol] | > 1000 nM |
| Oc1cccc2c1-c1cncn1C2CCC1(F)CCCCC1 (single isomer, unassigned) [Compound 43b, 5-(2-(1-fluorocyclohexyl)ethyl)-5H-imidazo[5,1-a]isoindol-9-ol] | < 100 nM |
| COc1ccc(F)c2c1-c1cncn1C2CCC1(F)CCCCC1 (single isomer, unassigned) [Compound 45a, 6-fluoro-5-(2-(1-fluorocyclohexyl)ethyl)-9-methoxy-5H-imidazo[5,1-a]isoindole] | > 1000 nM |
| COc1ccc(F)c2c1-c1cncn1C2CCC1(F)CCCCC1 (single isomer, unassigned) [Compound 45b, 6-fluoro-5-(2-(1-fluorocyclohexyl)ethyl)-9-methoxy-5H-imidazo[5,1-a]isoindole] | > 1000 nM |
| CC1(C)CCC(F)(CCC2c3ncccc3-c3cncn32)CC1 (single isomer, unassigned) [Compound 48a, 7-[2-(1-fluoro-4,4-dimethylcyclohexyl)ethyl]-4,6,9-triazatricyclo[6.4.0.0^[2,6]]dodeca-1(8),2,4,9,11-pentaene] | > 1000 nM |
| CC1(C)CCC(F)(CCC2c3ncccc3-c3cncn32)CC1 (single isomer, unassigned) [Compound 48b, 7-[2-(1-fluoro-4,4-dimethylcyclohexyl)ethyl]-4,6,9-triazatricyclo[6.4.0.0^[2,6]]dodeca-1(8),2,4,9,11-pentaene] | > 1000 nM |
| OC(CC1c2nc(Cl)ccc2-c2cncn21)C1CCC(F)(F)CC1 (single isomer, unassigned) [Compound 52a, 2-[10-chloro-4,6,9-triazatricyclo[6.4.0.0^[2,6]]dodeca-1(8),2,4,9,11-pentaen-7-yl]-1-(4,4-difluorocyclohexyl)ethan-1-ol] | 100 to 1000 nM |
| OC(CC1c2nc(Cl)ccc2-c2cncn21)C1CCC(F)(F)CC1 (single isomer, unassigned) [Compound 52c, 2-[10-chloro-4,6,9-triazatricyclo[6.4.0.0^[2,6]]dodeca-1(8),2,4,9,11-pentaen-7-yl]-1-(4,4-difluorocyclohexyl)ethan-1-ol] | > 1000 nM |
| COc1ccc2c(n1)C(CC(O)C1CCC3(CC1)CC3)n1cncc1-2 (single isomer, unassigned) [Compound 53b, 2-[10-methoxy-4,6,9-triazatricyclo[6.4.0.0^[2,6]]dodeca-1(8),2,4,9,11-pentaen-7-yl]-1-[spiro[2.5]octan-6-yl]ethan-1-ol] | < 100 nM |
| COc1ccc2c(n1)C(CC(O)C1CCC3(CC1)CC3)n1cncc1-2 (single isomer, unassigned) [Compound 53c, 2-[10-methoxy-4,6,9-triazatricyclo[6.4.0.0^[2,6]]dodeca-1(8),2,4,9,11-pentaen-7-yl]-1-[spiro[2.5]octan-6-yl]ethan-1-ol] | > 1000 nM |
